Test results: PubChem BioAssay (NCI)
Where “and” joins values, the source holds several entries; their conditions need not be identical. Equal entries are not always repeated.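 In this assay, cells in 96-well plates receive the compound at five concentrations for 48 hours. Endpoints are linearly interpolated between the surrounding concentrations. GI50 is the concentration that inhibits growth by half. TGI: total growth inhibition.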

Columns and labels:
Test in all cases: inhibition of tumour cell growth, NCI panel, 48 h
MALME-3M melanoma = system: MALME-3M melanoma
OVCAR-8 ovarian = system: OVCAR-8 ovarian
CCRF-CEM leukemia = system: CCRF-CEM leukemia
DMS 114 small cell lung = system: DMS 114 small cell lung
UO-31 renal = system: UO-31 renal
KM12 colon = system: KM12 colon
OVCAR-3 ovarian = system: OVCAR-3 ovarian
OVCAR-4 ovarian = system: OVCAR-4 ovarian
SK-MEL-28 melanoma = system: SK-MEL-28 melanoma
U251 CNS = system: U251 CNS
A549 NSCLC = system: A549 NSCLC
LXFL 529 NSCLC = system: LXFL 529 NSCLC
K-562 leukemia = system: K-562 leukemia
M14 melanoma = system: M14 melanoma
HCT-116 colon = system: HCT-116 colon
SK-MEL-2 melanoma = system: SK-MEL-2 melanoma
SW-620 colon = system: SW-620 colon
UACC-62 melanoma = system: UACC-62 melanoma
SF-295 CNS = system: SF-295 CNS
LOX IMVI melanoma = system: LOX IMVI melanoma
TK-10 renal = system: TK-10 renal
HT29 colon = system: HT29 colon
UACC-257 melanoma = system: UACC-257 melanoma
RPMI-8226 leukemia = system: RPMI-8226 leukemia
HOP-62 NSCLC = system: HOP-62 NSCLC
NCI-H522 lung = system: NCI-H522 lung
HL-60(TB) leukemia = system: HL-60(TB) leukemia
SNB-78 CNS = system: SNB-78 CNS
OVCAR-5 ovarian = system: OVCAR-5 ovarian
COLO 205 colon = system: COLO 205 colon
NCI-H460 lung = system: NCI-H460 lung
CAKI-1 renal = system: CAKI-1 renal
HOP-92 NSCLC = system: HOP-92 NSCLC
EKVX NSCLC = system: EKVX NSCLC
DMS 273 small cell lung = system: DMS 273 small cell lung
786-0 renal = system: 786-0 renal
NCI-H23 lung = system: NCI-H23 lung
SNB-19 CNS = system: SNB-19 CNS
SF-539 CNS = system: SF-539 CNS
ACHN renal = system: ACHN renal
MOLT-4 leukemia = system: MOLT-4 leukemia
IGROV1 ovarian = system: IGROV1 ovarian
SK-MEL-5 melanoma = system: SK-MEL-5 melanoma
KM20L2 colon = system: KM20L2 colon
M19-MEL melanoma = system: M19-MEL melanoma
HOP-18 NSCLC = system: HOP-18 NSCLC
HCC-2998 colon = system: HCC-2998 colon
SK-OV-3 ovarian = system: SK-OV-3 ovarian
DLD-1 colon = system: DLD-1 colon
A498 renal = system: A498 renal
MDA-MB-231 breast = system: MDA-MB-231 breast
MDA-N = system: MDA-N
XF 498 CNS = system: XF 498 CNS
BT-549 breast = system: BT-549 breast
PC-3 prostate = system: PC-3 prostate
SR leukemia = system: SR leukemia
SF-268 CNS = system: SF-268 CNS
NCI-H226 lung = system: NCI-H226 lung
RXF 393 renal = system: RXF 393 renal
SN12C renal = system: SN12C renal
SNB-75 CNS = system: SNB-75 CNS

In the case of COC(=O)C1CCc2c(OC)ccc(OC)c2C1=O (centres undefined), the TGI (MALME-3M melanoma) was over 100 µM, the TGI (OVCAR-8 ovarian) was over 100 µM and the TGI (CCRF-CEM leukemia) was over 100 µM. The TGI (DMS 114 small cell lung) was over 100 µM, the TGI (UO-31 renal) was over 100 µM and the TGI (KM12 colon) was over 100 µM. The TGI (OVCAR-3 ovarian) was over 100 µM, the TGI (OVCAR-4 ovarian) was over 100 µM and the TGI (SK-MEL-28 melanoma) was over 100 µM. It also gave a TGI (U251 CNS) of over 100 µM, a TGI (A549 NSCLC) of over 100 µM and a TGI (LXFL 529 NSCLC) of over 100 µM. The TGI (K-562 leukemia) was over 100 µM, the TGI (M14 melanoma) was over 100 µM and the TGI (HCT-116 colon) was over 100 µM. The TGI (SK-MEL-2 melanoma) was over 100 µM, the TGI (SW-620 colon) was over 100 µM and the TGI (UACC-62 melanoma) was over 100 µM. For the same compound, the TGI (SF-295 CNS) was over 100 µM, the TGI (LOX IMVI melanoma) was over 100 µM and the TGI (TK-10 renal) was over 100 µM. It also gave a TGI (HT29 colon) of over 100 µM, a TGI (UACC-257 melanoma) of over 100 µM and a TGI (RPMI-8226 leukemia) of over 100 µM. It also gave a TGI (HOP-62 NSCLC) of over 100 µM, a TGI (NCI-H522 lung) of over 100 µM and a TGI (HL-60(TB) leukemia) of over 100 µM. For the same compound, the TGI (SNB-78 CNS) was over 100 µM, the TGI (OVCAR-5 ovarian) was over 100 µM and the TGI (COLO 205 colon) was over 100 µM. For the same compound, the TGI (NCI-H460 lung) was over 100 µM, the TGI (CAKI-1 renal) was over 100 µM and the TGI (HOP-92 NSCLC) was over 100 µM. For the same compound, the TGI (EKVX NSCLC) was over 100 µM, the TGI (DMS 273 small cell lung) was over 100 µM and the TGI (786-0 renal) was over 100 µM. For the same compound, the TGI (NCI-H23 lung) was over 100 µM, the TGI (SNB-19 CNS) was over 100 µM and the TGI (SF-539 CNS) was over 100 µM. It also gave a TGI (ACHN renal) of over 100 µM, a TGI (MOLT-4 leukemia) of over 100 µM and a TGI (IGROV1 ovarian) of over 100 µM. The TGI (SK-MEL-5 melanoma) was over 100 µM, the TGI (KM20L2 colon) was over 100 µM and the TGI (M19-MEL melanoma) was over 100 µM. For the same compound, the TGI (HOP-18 NSCLC) was over 100 µM, the TGI (HCC-2998 colon) was over 100 µM and the TGI (SK-OV-3 ovarian) was over 100 µM. It also gave a TGI (DLD-1 colon) of over 100 µM and a TGI (A498 renal) of over 100 µM.

CO[C@H](/C(C)=C/C=C/C(C)=C/c1coc(C)n1)[C@H](C)[C@H]1C[C@@H](O)[C@@]2(C)O[C@H]2/C=C/[C@@H](C)[C@@H]2C[C@@H](CC(=O)O2)C[C@H]2O[C@@H]2C(=O)O1 showed a GI50 (M14 melanoma) of 0.1 pM, a GI50 (MDA-MB-231 breast) of 0.942 pM and a GI50 (TK-10 renal) of 0.042 µM. For the same compound, the TGI (TK-10 renal) was over 69.5 µM, the TGI (UACC-257 melanoma) was 5 µM and 50 µM and 11.4 µM and the TGI (MDA-N) was 2.15 pM. The TGI (OVCAR-5 ovarian) was 3.99 µM and 31 µM and > 31.6 µM, the TGI (XF 498 CNS) was 2.25 µM and 0.576 µM and the GI50 (786-0 renal) was 0.106 pM. It also gave a TGI (ACHN renal) of over 64 µM, a TGI (KM20L2 colon) of 0.0005 µM and a GI50 (BT-549 breast) of 0.0133 nM. It also gave a TGI (BT-549 breast) of 2.81 µM, a TGI (PC-3 prostate) of 2.37 pM and a TGI (SR leukemia) of over 100 µM.

CC1CC(=O)C(C(O)CC2CC(=O)N(c3ccccc3)C(=O)C2)C(C)C1 (centres undefined) showed a TGI (MALME-3M melanoma) of over 100 µM, a TGI (OVCAR-8 ovarian) of over 100 µM and a TGI (CCRF-CEM leukemia) of over 100 µM. It also gave a TGI (DMS 114 small cell lung) of over 100 µM, a TGI (UO-31 renal) of over 100 µM and a TGI (KM12 colon) of over 100 µM. For the same compound, the TGI (OVCAR-3 ovarian) was over 100 µM, the TGI (OVCAR-4 ovarian) was over 100 µM and the TGI (SK-MEL-28 melanoma) was over 100 µM. It also gave a TGI (U251 CNS) of over 100 µM, a TGI (A549 NSCLC) of over 100 µM and a TGI (LXFL 529 NSCLC) of over 100 µM. It also gave a TGI (K-562 leukemia) of over 100 µM, a TGI (M14 melanoma) of over 100 µM and a TGI (HCT-116 colon) of over 100 µM. For the same compound, the TGI (SW-620 colon) was over 100 µM, the TGI (UACC-62 melanoma) was over 100 µM and the TGI (SF-295 CNS) was over 100 µM. The TGI (SF-268 CNS) was over 100 µM, the TGI (LOX IMVI melanoma) was over 100 µM and the TGI (TK-10 renal) was over 100 µM. For the same compound, the TGI (HT29 colon) was over 100 µM, the TGI (NCI-H226 lung) was over 100 µM and the TGI (UACC-257 melanoma) was over 100 µM. For the same compound, the TGI (RPMI-8226 leukemia) was over 100 µM, the TGI (HOP-62 NSCLC) was over 100 µM and the TGI (NCI-H522 lung) was over 100 µM. For the same compound, the TGI (HL-60(TB) leukemia) was over 100 µM, the TGI (SNB-78 CNS) was over 100 µM and the TGI (RXF 393 renal) was over 100 µM. It also gave a TGI (OVCAR-5 ovarian) of over 100 µM, a TGI (SN12C renal) of over 100 µM and a TGI (COLO 205 colon) of over 100 µM. It also gave a TGI (NCI-H460 lung) of over 100 µM, a TGI (CAKI-1 renal) of over 100 µM and a TGI (HOP-92 NSCLC) of over 100 µM. For the same compound, the TGI (EKVX NSCLC) was over 100 µM, the TGI (DMS 273 small cell lung) was over 100 µM and the TGI (786-0 renal) was over 100 µM. For the same compound, the TGI (NCI-H23 lung) was over 100 µM, the TGI (SNB-19 CNS) was over 100 µM and the TGI (SF-539 CNS) was over 100 µM. For the same compound, the TGI (ACHN renal) was over 100 µM, the TGI (MOLT-4 leukemia) was over 100 µM and the TGI (IGROV1 ovarian) was over 100 µM. It also gave a TGI (KM20L2 colon) of over 100 µM, a TGI (M19-MEL melanoma) of over 100 µM and a TGI (HOP-18 NSCLC) of over 100 µM. It also gave a TGI (HCC-2998 colon) of over 100 µM, a TGI (SNB-75 CNS) of over 100 µM and a TGI (SK-OV-3 ovarian) of over 100 µM. For the same compound, the TGI (DLD-1 colon) was over 100 µM, the TGI (A498 renal) was over 100 µM and the TGI (SR leukemia) was over 100 µM.
